Measured values: US12433892B2, “Compositions and methods of treatment for neurological disorders comprising depression” (Gliapharm SA, priority 2018, dated 2025)
Where a name gives a salt, the structure may show the parent alone.

Experiments:
[1] = system: cerebral extracellular lactate; assay: In vivo pharmacodynamics: lactate biosensors in cortex; set-up: species or system mouse
Protocol: Extracellular levels of lactate were monitored in vivo using lactate biosensors (Pinnacle Technology), according to the manufacturer's instructions. Cannulae were surgically implanted in mice cerebral cerebral motor cortex areas M1/M2 (coordinates: +1.94 mm (to bregma), lateral −1.4 mm (to mideline), ventral −1.0 mm (to dura)) 5-7 days before administration of the compounds. Drugs were administered per os as previously described, and cerebral levels of extracellular lactate were dynamically recorded for 6 hours. Mice were administered vehicle alone first, followed 3 hours later by vehicle or drug (10 or 100 mg/kg). Area Under the Curve (AUC) quantifying the fluctuations of extracellular lactate concentrations for each of the compound tested was calculated using Graphad Prism and the ratio of AUC after drug over Vehicle administration was calculated. Groups of 8 male mice were used for each condition.
To measure biological effect of lead molecules in vivo in the brain, lactate levels were quantified after administration of the drug by using lactate biosensors implanted in the cortex of freely moving mice.

[2] = system: astrocytes; assay: Intracellular glycogen quantification; type: cell-based, mouse; details: Prestwick hits; 10 uM, 3 h
Protocol: For glycogen dosage, a protein dosage was first performed in order to assess whether harvested astrocytes from primary cell cultures yielded enough and equivalent amounts of proteins comparing each replicate, and to ensure that the obtained differences in glycogen quantities were due to drug action and not to inner protein quantities.
Astrocytes used for these dosages were previously grown in 6-well plates for 17 days and stimulated with Vehicle (DMSO) or drug of interest (1 μM to 100 μM) for 180 min, at 37° C. 5% CO2/95% air in D5030 complete medium. Medium was removed and replaced with 600 μl of 30 mM Tris HCl, and stored at −20° C.
Proteins were dosed using the micro BCA Protein Assay kit (Thermo Scientific), as described in the manufacturer's instructions. Briefly, thawed cells were sonicated and 5 μl aliquots were placed in a transparent 96-well plate, to which we added 25 μl 30 mM Tris HCl, 70 μl H2O and 100 μl of a BCA mix (made as described in manufacturer's guidelines). After a 120 min-incubation at 37° C., absorbance was measured with Safire 2 spectrophotometer at a wavelength of 562 nm, and protein quantities were determined from a standard curve of Bovine Serum Albumin (BSA).
Glycogen was quantified using a 250 μl-aliquot of the same stimulated, thawed, and sonicated cells. After an incubation period of 30 min at 90° C. and 400 rpm, 28 μl of an acetic acid/sodium acetate (both from Sigma) 0.1M pH 4.6 buffer was added to each aliquot, which was then separated in two. Each split aliquot received whether 5 μl of amyloglucosidase (Roche) or 5 μl H2O, and all cell solutions were incubated for 120 min in a shaking 37° C.-waterbath. After a centrifugation at 16'000 G for 5 min, 20 μl of supernatant were placed 96-well plate, to which 150 μl of a mix containing 0.67 mM ATP (Roche), 0.67 mM NADP (Roche), 1.8% hexokinase/glucose-6-phosphate dehydrogenase (Roche) and 0.1M Tris Buffer-HCl/3.3 mM magnesium (Fluka)/pH 8.1 buffer was added. Fluorescence was measured with Safire 2 spectrophotometer (340 nm excitation/440 nm emission). Glycogen concentration was obtained by subtracting glucose value of samples with amyloglucosidase to samples without amyloglucosidase, and were expressed relative to the amount of proteins previously determined.
Levels of intracellular glycogen in astrocytes were measured at 3 h after stimulation with 20 hits from the Prestwick library (10 μM each), as shown in FIG. 2. n=6-10; Ctrl pos. is glutamate (0.5 mM). Statistical analysis consisted in ANOVA followed by Fisher LSD post-hoc test for pair-wise comparisons.
Statistical analysis consisted in ANOVA followed by Fisher LSD post-hoc test for pair-wise comparisons.

[3] = system: C57Bl/6 male and female mice; assay: In vivo chronic toxicity (28 days); details: 10 mg/kg per os once a day, 28 days
Protocol: During this period, clinical symptoms and weight were recorded.
Chronic toxicity was assessed.

[4] = In vivo pharmacokinetics (PFC microdialysis and plasma); set-up: species or system mouse; details: after gavage with 100 mg/kg
Protocol: Mice were anesthetized using isoflurane (2% and 800 mL/min O2). Before surgery, Finadyne (1 mg/kg, s.c.) was administered for analgesia during surgery and the post-surgical recovery period. A mixture of bupivacaine and epinephrine was used for local anesthesia of the incision site of the periost of the skull.
The animals were placed in a stereotaxic frame (Kopf instruments, USA). MetaQuant microdialysis probes with a 3 mm exposed polyacrylonitrile membrane (MQ-PAN 3/3, Brainlink, the Netherlands) were implanted into the prefrontal cortex (coordinates for the tip of the probe: AP=+2.0 mm (to bregma), lateral=−0.7 mm (to midline), ventral=−3.3 mm (to dura), with the incisor bar set at 0.0 mm and an angle of 8°). All coordinates were based on “The mouse brain in stereotaxic coordinates” by Paxinos and Franklin (2004). The probes were attached to the skull with a stainless steel screw and dental cement (Fuji Plus Capsules, Henry Schein, the Netherlands).
In the same surgical procedure, a catheter was placed into the jugular vein to accommodate blood sampling. An indwelling cannula was inserted into the right jugular vein, and exteriorized through an incision on top of the skull. The end of the jugular vein catheter was fixed in position with dental acrylic cement and attached to the skull with two stainless steel screws.
Experiments were initiated one day after surgery. The MetaQuant microdialysis probes were connected with flexible PEEK tubing (Western Analytical Products Inc. USA; PK005-020) to a microperfusion pump (CMA Microdialysis) and perfused with aCSF+0.2% BSA at a flow rate of 0.12 μL/min. Ultrapurified water+0.2% BSA was used as the carrier flow at a flow rate of 0.80 μL/min. After a minimum of 1.5 hours of prestabilization, microdialysis samples were collected in 30 minute intervals. Samples were collected into polystyrene microvials (Microbiotech/se AB, Sweden; 4001029) using an automated fraction collector (UV 8301501, TSE, Univentor, Malta). After collection of three basal samples, at t=0 minutes, drug of interest was administered per os. Eight additional samples were collected after compound administration. All samples were stored at −80° C. until off-line analysis.
In parallel, blood samples (50 μL) were taken from the jugular vein through the cannula. These samples were collected at specified intervals into vials containing 5 μL heparin (500 IE/mL in saline). The samples were mixed by inverting the tubes and, subsequently, centrifuged at 4000 rpm (1500×g) for 10 min at 4° C. The supernatant was stored as plasma in 1.5 mL Eppendorf vials (Sarstedt, Germany) at −80° C. until off-line analysis.
At the end of the experiment, the animals were euthanized and terminal brain tissue was collected for visual histological verification of the probe positions.
PK was measured for GP-04, GP-05, GP-07, GP-R1 and GP-P1 in the PFC (prefrontal cortex) and plasma of wild type C56Bl/6 mice by CRO Brainsonline.

[5] = system: primary astrocytes; assay: Intracellular glycogen quantification, Example 2; type: cell-based, mouse; details: 10 μM, 3 h (GP-0157: 0.1, 1, 10 μM)
Protocol: To assess for the effect of the compounds of the invention, those were tested in primary astrocytes, as described below. Secretion of lactate was measured directly in the extracellular medium, and indirectly through the acidification of extracellular medium using extracellular pH sensor SNARE-5F-(AND-6)-CAR (SNARF5). Glucose uptake was measured by quantification 2-deoxyglucose in the cell. Cell Cultures Primary cultures of cerebrocortical astrocytes were obtained from 1 to 2-day-old OF1 mouse pups (Charles River). Briefly, cortices were isolated and minced in small pieces under a dissecting microscope. The cells were incubated for 30 min at 37° C. in a solution containing 20 U/ml papain, 1 mM L-cysteine and 10 kU/ml DNase I. After dissociation, papain activity was stopped by the addition of fetal calf serum (FCS). Single-cell suspension was then obtained by mechanical dissociation, which consisted in cells trituration in a DMEM D7777 medium supplemented with 44 mm NaHCO3, 10 ml/L antibiotic/antimycotic solution and 10% FCS. The cells were seeded at an average density of ˜10'000 cells/cm2 on poly-D-lysine coated 96- or 12-well culture plates, depending on their use, and grown in DMEM D7777 medium supplemented with 44 mm NaHCO3, 10 ml/L antibiotic/antimycotic solution and 10% FCS at 37° C. in a humidified atmosphere containing 5% CO2/95% air. Culture medium was renewed twice a week. Cells were stimulated and harvested between DIV14 and DIV17, when confluence and cell growth were optimal. Extracellular Medium Acidification (SNARF5) Secretion of lactate was measured indirectly through the acidification of extracellular medium using extracellular pH sensor […] (SNARF5). After washing cells twice with stimulation medium (DMEM (D5030, Sigma), 1 mM NaHCO2, and 5 mM Glucose, pH 7.4) at 37° C., cells were stimulated with compounds at a final concentration ranging from 10 nM to 30 μM in 50 μl per well of stimulation medium supplemented with 10 μM of SNARF5 (Life Technologies Corporation). Each compound was tested in two different plates for duplicates. After 90 min stimulation, fluorescence was read at exc. (excitation) 480 nm/emm. (emission) 580 nm and at exc 480 nm/emm. 630 nm. The ratio of fluorescence between 630 nm and 580 emission values, which is proportional to extracellular pH, was calculated. In each plate, 8 wells were used for negative controls (DMSO 0.1%) and 8 wells were used for positive controls (CCCP 2 μM in DMSO). The extracellular medium acidification in primary mouse astrocytes treated with GP-A1 was quantified (FIG. 13). Extracellular medium acidification was measured over a period of 1.5 h and 3 h. […] Extracellular Lactate Quantification Secretion of L-lactate was measured in the extracellular medium of 96-well plated astrocytes after 90 min stimulation (at 37° C., in 5% CO2/95% air conditions) with Vehicle (DMSO), the compounds of the invention (100 nM to 100 μM) or positive control. […] Stimulation medium was composed of D5030 medium complemented with 5 mM D-glucose and 44 mM sodium bicarbonate, pH 7.2. To quantify lactate concentrations in the extracellular medium, 200 μl of a 0.2M Glycine-semicarbazide buffer (pH 10) containing 3 mM NAD and 14 U/ml LDH was added to each well of a 96-well plate containing 30 μl aliquots of extracellular medium. Samples were incubated at 37° C. for 1 h. Fluorescence intensity (340 nm excitation/450 nm emission), which represents the amount of NADH produced, was measured, and lactate concentration values were determined relative to a standard curve of L-lactate concentrations. The release of lactate from primary mouse astrocytes treated with GP-A1 was quantified (FIG. 5A and FIG. 14). Accumulation of lactate in the extracellular medium was measured over a period of 1.5 h. […] Intracellular Glycogen Quantification Astrocytes grown on 12-well plates were used for intracellular glycogen quantifications. […]

[6] = system: astrocytes; assay: Intracellular glycogen quantification; type: cell-based, mouse; details: CDC54K hits; 10 uM, 3 h

SMILES | levels in the PFC [4] | mobilization of intracellular glycogen [5] | other results
C[N+]1(C)CCC(=C(c2ccccc2)c2ccccc2)CC1 [Diphemanil methylsulfate] | at therapeutic range (100 nM to 1 uM) and sustained over several hours |  | cerebral lactate (AUC ratio vs vehicle) ([1]; 10 mg/kg per os): Significant increase; Glycogen (statistical significance of glycogen degradation) [2]: **** (****p<0.0001); chronic toxicity (toxic or safe) [3]: safe
N=C(N)N1CCc2ccccc2C1 [Debrisoquin sulfate] | at therapeutic range (100 nM to 1 uM) and sustained over several hours |  | cerebral lactate (AUC ratio vs vehicle) ([1]; 10 mg/kg per os): Significant increase; Glycogen (statistical significance of glycogen degradation) [2]: **** (****p<0.0001)
Cc1nc2ccc(NS(=O)(=O)c3cccc(F)c3)cc2s1 [T6937001] |  | significantly enhance the mobilization of intracellular glycogen | 
COc1ccc(Nc2nc(N3CCOCC3)c3ccccc3n2)cc1.Cl [T0508-5190] |  | significantly enhance the mobilization of intracellular glycogen | Glycogen (statistical significance of glycogen degradation) [6]: ** (**p<0.01)
CC(=O)N1CCc2sc(S(=O)(=O)N3CCN(c4ccccc4C)CC3)cc2C1 [P025-0159] | need chemical improvement to reach their target at therapeutic dose in the brain | significantly enhance the mobilization of intracellular glycogen | cerebral lactate (AUC ratio vs vehicle) ([1]; 100 mg/kg per os): Significant increase
N#Cc1ccc(C(=O)N2CCC(Nc3ncnc4c3CCC4)C2)cc1 (centres unmarked) [T636-2387] |  | significantly enhance the mobilization of intracellular glycogen | cerebral lactate (AUC ratio vs vehicle) ([1]; 100 mg/kg per os): Significant increase
c1ccc2c(c1)CCN(c1ncnc3sccc13)C2 [T0517-8250] |  | significantly enhance the mobilization of intracellular glycogen | 
COc1cc(C)c(Cl)cc1S(=O)(=O)NCc1ccncc1 [T5580243] | at therapeutic range (100 nM to 1 uM) and sustained over several hours |  | cerebral lactate (AUC ratio vs vehicle) ([1]; 100 mg/kg per os): Significant increase
O=C1CCCN1c1ccc(S(=O)(=O)Nc2cccc(/C=C/c3ccccn3)c2)cc1 [T5644989] |  | significantly enhance the mobilization of intracellular glycogen | 
CCc1nc(-c2csc(S(=O)(=O)NCc3ccc4c(c3)OCO4)c2)no1 [L287-0468] |  | significantly enhance the mobilization of intracellular glycogen | 
CCn1nccc1-c1csc(S(=O)(=O)Nc2ccc(Cl)cc2F)c1 [L924-1031] |  | significantly enhance the mobilization of intracellular glycogen | 
COc1cccc(CNS(=O)(=O)c2ccc3c(c2)CCCN3C(C)=O)c1 [T5967389] |  |  | Glycogen (statistical significance of glycogen degradation) [6]: * (*p<0.05)
Cc1ccccc1NC(=O)C1CCCN(c2ncnc3oc(C)c(C)c23)C1 (centres unmarked) [F228-0422] |  | significantly enhance the mobilization of intracellular glycogen | 
